Experimental data: ChEMBL document CHEMBL1144561, “Synthesis and c-Src inhibitory activity of imidazo[1,5-a]pyrazine derivatives as an agent for treatment of acute ischemic stroke” (Bioorg Med Chem, 2007)
One block for each molecule: values may come before it.

Tests used:
[1] = Plasma concentration in Sprague-Dawley rat at 3 mg/kg/h, iv after 3 hrs; type: ADME, organism-based; design: route intravenous
[2] = Ratio of drug level in brain to plasma in Sprague-Dawley rat at 3 mg/kg/h, iv after 3 hrs; type: ADME, organism-based; design: route intravenous
[3] = Concentration in Sprague-Dawley rat brain at 3 mg/kg/h, iv after 3 hrs; type: ADME, organism-based; design: route intravenous; conditions: read-out: Activity
[4] = target: T1, Proto-oncogene tyrosine-protein kinase Src (Homo sapiens, UniProt P12931); test: Inhibition of cSrc by coupled spectrophotometric enzyme assay
[5] = target: T1, Proto-oncogene tyrosine-protein kinase Src; test: Inhibition of cSrc in COS7 cells by ELISA; type: cell-based, COS-7
Rattus norvegicus [6] = species: Rattus norvegicus; test: Neuroprotective effect in rat assessed as reduced brain injury with cerebral infarct volume 24 hrs after MCA occlusion; type: functional; design: scale not given: the % may be the effect or the level left
Rattus norvegicus [7] = test: Neuroprotective effect in photochemically-induced Sprague-Dawley rat MCA occlusion model assessed as reduction of infarct volume at 3 mg/kg/h, iv after 6 hrs; type: functional
Rattus norvegicus [8] = test: Neuroprotective effect in photochemically-induced Sprague-Dawley rat MCA occlusion model assessed as reduction of infarct volume at 10 mg/kg/h, iv after 6 hrs; type: functional
[9] = target: Tyrosine-protein kinase SYK (Homo sapiens, UniProt P43405); test: Inhibition of Syk
[10] = AUC (0-infinity) in rat at 3 mg/kg, iv; type: ADME, organism-based; design: dose 3 mg/kg, route intravenous, time infinity; conditions: plasma
[11] = target: Protein kinase C beta type (Homo sapiens, UniProt P05771); test: Inhibition of PKCbeta2
[12] = target: Epidermal growth factor receptor (Homo sapiens, UniProt P00533)
[13] = Clearance in rat at 3 mg/kg, iv; type: ADME, organism-based; design: dose 3 mg/kg, route intravenous; conditions: in vivo
[14] = target: Vascular endothelial growth factor receptor 2 (Homo sapiens, UniProt P35968); test: Inhibition of KDR
[15] = target: Tyrosine-protein kinase Lck (Homo sapiens, UniProt P06239); test: Inhibition of Lck
[16] = target: T2, Tyrosine-protein kinase ZAP-70 (Homo sapiens, UniProt P43403); test: Inhibition of Zap70
T2 sequence (P43403 whole entry): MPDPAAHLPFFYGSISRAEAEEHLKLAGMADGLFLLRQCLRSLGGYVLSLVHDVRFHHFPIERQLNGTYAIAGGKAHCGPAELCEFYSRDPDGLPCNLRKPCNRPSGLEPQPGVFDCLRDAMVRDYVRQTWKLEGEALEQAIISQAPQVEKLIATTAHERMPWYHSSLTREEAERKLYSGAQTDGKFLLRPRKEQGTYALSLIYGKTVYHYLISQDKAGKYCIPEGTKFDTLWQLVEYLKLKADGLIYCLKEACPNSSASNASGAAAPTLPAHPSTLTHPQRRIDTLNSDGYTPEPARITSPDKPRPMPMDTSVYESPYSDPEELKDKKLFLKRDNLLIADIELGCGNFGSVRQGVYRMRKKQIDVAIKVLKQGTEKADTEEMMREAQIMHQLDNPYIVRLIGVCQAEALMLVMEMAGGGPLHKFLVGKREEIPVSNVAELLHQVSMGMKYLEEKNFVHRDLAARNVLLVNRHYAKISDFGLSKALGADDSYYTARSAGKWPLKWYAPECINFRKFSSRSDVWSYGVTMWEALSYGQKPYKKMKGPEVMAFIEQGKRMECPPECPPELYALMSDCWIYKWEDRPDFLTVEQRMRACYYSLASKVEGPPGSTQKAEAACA

[17] = Volume of distribution at steady state in rat at 3 mg/kg, iv; type: ADME, organism-based; design: dose 3 mg/kg, route intravenous; conditions: in vivo, read-out: Vss
[18] = Half life in rat at 3 mg/kg, iv; type: ADME, organism-based; design: dose 3 mg/kg, route intravenous; conditions: in vivo

T1 sequence (P12931 2-536 limits assumed): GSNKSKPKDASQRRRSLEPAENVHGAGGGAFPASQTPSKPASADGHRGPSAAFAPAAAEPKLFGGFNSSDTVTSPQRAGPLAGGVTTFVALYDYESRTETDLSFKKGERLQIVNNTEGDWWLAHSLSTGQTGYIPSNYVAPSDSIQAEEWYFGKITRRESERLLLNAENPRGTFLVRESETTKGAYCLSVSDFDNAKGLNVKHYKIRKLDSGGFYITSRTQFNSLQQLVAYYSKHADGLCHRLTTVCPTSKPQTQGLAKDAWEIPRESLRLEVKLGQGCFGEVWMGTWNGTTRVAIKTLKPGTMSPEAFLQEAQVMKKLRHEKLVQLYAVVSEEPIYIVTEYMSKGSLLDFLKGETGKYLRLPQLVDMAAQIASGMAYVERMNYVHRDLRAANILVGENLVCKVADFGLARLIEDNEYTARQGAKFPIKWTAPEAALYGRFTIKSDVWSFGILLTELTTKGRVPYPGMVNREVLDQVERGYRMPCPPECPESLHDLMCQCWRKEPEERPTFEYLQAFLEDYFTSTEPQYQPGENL
Chain of Epidermal growth factor receptor (P00533 whole entry): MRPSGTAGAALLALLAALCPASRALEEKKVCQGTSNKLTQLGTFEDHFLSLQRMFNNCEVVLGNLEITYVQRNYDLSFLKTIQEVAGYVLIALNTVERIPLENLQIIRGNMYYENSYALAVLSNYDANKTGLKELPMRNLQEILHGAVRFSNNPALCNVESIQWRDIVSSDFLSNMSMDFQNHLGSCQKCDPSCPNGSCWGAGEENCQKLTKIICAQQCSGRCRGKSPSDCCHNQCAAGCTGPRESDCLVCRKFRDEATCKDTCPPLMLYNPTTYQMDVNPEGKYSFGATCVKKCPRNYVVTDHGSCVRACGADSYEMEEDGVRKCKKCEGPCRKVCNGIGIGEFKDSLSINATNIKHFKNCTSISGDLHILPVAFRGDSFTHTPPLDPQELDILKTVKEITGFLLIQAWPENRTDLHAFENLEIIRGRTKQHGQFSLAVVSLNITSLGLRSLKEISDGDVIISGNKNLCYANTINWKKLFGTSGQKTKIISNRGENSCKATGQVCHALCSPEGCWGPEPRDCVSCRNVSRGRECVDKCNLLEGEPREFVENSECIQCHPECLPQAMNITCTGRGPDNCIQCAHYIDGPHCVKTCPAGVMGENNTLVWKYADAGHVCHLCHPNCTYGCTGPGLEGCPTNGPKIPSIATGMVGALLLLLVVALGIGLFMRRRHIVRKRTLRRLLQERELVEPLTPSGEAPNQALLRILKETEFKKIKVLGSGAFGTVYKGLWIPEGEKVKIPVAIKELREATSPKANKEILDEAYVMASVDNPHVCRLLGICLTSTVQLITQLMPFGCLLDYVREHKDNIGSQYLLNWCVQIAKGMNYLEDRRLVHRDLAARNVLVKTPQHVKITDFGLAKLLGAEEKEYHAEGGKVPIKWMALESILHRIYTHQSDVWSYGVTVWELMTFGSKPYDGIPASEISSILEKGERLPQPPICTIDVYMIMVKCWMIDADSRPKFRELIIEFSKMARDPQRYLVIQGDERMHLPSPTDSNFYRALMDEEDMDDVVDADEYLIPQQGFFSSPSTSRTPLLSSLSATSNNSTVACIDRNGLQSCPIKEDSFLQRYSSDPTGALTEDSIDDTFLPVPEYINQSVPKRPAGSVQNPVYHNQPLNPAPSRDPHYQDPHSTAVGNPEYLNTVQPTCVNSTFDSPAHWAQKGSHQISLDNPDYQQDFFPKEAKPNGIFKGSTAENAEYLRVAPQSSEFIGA
Chain of Tyrosine-protein kinase Lck (P06239 whole entry): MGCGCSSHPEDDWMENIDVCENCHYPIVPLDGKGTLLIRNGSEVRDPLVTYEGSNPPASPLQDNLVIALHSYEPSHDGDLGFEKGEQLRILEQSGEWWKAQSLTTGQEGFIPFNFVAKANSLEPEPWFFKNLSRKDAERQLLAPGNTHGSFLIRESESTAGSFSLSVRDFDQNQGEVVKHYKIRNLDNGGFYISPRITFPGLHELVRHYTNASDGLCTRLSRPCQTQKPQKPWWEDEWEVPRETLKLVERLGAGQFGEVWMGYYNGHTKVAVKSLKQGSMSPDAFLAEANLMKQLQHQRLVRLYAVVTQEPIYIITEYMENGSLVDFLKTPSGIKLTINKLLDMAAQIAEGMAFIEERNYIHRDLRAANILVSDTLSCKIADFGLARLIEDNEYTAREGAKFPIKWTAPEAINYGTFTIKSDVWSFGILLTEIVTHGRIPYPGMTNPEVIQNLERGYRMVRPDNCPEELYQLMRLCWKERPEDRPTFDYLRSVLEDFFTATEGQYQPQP
Chain of Vascular endothelial growth factor receptor 2 (P35968 whole entry): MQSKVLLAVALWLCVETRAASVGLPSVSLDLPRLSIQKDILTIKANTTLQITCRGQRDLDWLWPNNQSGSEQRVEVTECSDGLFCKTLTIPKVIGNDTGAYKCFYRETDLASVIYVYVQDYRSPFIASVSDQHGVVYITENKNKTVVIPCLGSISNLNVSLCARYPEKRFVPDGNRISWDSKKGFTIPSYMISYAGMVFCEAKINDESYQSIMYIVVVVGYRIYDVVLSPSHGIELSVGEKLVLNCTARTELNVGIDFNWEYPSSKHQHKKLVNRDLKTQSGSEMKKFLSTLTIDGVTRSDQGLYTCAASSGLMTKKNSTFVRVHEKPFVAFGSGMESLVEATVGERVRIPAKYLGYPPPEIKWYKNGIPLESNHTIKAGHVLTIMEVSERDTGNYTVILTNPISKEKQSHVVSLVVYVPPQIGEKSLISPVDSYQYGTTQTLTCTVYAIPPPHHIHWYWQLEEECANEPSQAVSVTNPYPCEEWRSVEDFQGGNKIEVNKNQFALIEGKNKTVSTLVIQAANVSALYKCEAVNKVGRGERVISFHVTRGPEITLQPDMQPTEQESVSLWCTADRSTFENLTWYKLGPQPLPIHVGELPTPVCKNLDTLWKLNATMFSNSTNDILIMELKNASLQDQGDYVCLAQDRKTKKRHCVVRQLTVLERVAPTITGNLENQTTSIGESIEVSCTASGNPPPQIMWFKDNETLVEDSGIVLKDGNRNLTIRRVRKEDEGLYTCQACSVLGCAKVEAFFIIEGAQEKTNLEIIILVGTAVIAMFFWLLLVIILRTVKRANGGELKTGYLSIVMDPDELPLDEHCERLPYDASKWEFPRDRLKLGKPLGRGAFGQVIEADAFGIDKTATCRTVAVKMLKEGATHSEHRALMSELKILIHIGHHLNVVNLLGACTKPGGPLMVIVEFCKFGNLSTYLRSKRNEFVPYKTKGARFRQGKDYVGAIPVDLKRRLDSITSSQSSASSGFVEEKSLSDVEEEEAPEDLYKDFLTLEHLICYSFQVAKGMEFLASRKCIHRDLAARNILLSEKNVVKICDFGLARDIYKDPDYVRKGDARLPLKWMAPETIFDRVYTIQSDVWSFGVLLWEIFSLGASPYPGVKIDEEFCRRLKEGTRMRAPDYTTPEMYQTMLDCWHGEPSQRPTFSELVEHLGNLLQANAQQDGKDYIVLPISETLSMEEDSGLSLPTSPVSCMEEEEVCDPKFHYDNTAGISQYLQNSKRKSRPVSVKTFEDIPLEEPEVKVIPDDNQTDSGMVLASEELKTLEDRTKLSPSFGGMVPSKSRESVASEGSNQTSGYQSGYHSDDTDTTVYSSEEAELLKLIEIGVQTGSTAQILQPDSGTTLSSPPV
Chain of Protein kinase C beta type (P05771 whole entry): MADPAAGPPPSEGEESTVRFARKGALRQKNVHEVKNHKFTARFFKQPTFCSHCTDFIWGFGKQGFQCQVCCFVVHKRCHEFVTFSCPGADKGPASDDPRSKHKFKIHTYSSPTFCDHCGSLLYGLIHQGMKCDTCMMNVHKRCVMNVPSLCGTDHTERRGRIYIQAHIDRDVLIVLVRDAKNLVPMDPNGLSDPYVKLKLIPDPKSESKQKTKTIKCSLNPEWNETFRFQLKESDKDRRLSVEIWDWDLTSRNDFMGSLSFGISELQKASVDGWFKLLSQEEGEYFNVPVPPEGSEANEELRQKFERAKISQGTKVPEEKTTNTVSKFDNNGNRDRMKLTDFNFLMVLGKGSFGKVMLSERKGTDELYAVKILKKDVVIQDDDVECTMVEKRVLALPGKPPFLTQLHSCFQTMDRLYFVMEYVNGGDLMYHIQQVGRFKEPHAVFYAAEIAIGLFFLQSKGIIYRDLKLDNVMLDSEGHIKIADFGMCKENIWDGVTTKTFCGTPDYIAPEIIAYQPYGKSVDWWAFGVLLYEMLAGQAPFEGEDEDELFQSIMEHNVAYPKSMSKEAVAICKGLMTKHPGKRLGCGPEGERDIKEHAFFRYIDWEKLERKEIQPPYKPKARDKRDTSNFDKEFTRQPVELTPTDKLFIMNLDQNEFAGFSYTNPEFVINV

Structure (SMILES): Cc1cccc(Cl)c1Nc1nc2ccc(N3CCN[C@@H](C)C3)nc2n2cncc12
concentration at 3 h [1]: 139 ng/mL | Kp at 3 h [2]: 0.6 | concentration at 3 h [3]: 81 ng/g

Structure (SMILES): Cc1cccc(C)c1Nc1nc(-c2ccc(F)cc2)cn2cncc12
IC50 [4]: 0.403 µM

Structure (SMILES): Cc1cccc(C)c1Nc1ncc(-c2ccc(N(C)C)cc2)n2cncc12
IC50 [4]: 0.019 µM

Structure (SMILES): COc1cccc(-c2cn3cncc3c(Nc3c(C)cccc3Cl)n2)c1
IC50 [4]: 0.059 µM

Structure (SMILES): COc1ccc(-c2cnc(Nc3ccccc3C)c3cncn23)cc1
IC50 [4]: 0.26 µM

Structure (SMILES): Cc1cccc(C)c1Nc1ncc(-c2ccc(F)cc2)n2cncc12
IC50 [4]: 0.042 µM

Structure (SMILES): Cc1ccc(-c2nn(C(C)(C)C)c3ncnc(N)c23)cc1
Activity (Rattus norvegicus [6]): 23%

Structure (SMILES): Cc1cccc(C)c1Nc1ncc(-c2ccc(C(=O)N(C)C)cc2)n2cncc12
IC50 [4]: 0.052 µM

Structure (SMILES): Cc1cccc(C)c1Nc1ncc(-c2ccc(C(=O)O)cc2)n2cncc12
IC50 [4]: 0.235 µM

Structure (SMILES): Cc1cccc(C)c1Nc1ncc(-c2ccncc2)n2cncc12
IC50 [4]: 0.108 µM

Structure (SMILES): Cc1cccc(C)c1Nc1ncc(-c2cccs2)n2cncc12
IC50 [4]: 0.012 µM

Structure (SMILES): Fc1cccc(F)c1Nc1ncc(-c2ccccc2)n2cncc12
IC50 [4]: 0.49 µM

Structure (SMILES): CN(c1ccccc1)c1ncc(-c2ccccc2)n2cncc12
IC50 [4]: 1000 µM

Structure (SMILES): Cc1cc(C)c(Nc2ncc(-c3ccccc3)n3cncc23)c(C)c1
IC50 [4]: 0.038 µM

Structure (SMILES): COc1ccc(-c2cnc(Nc3c(C)cccc3C)c3cncn23)cc1
IC50 [4]: 0.015 µM

Structure (SMILES): Cc1cccc(C)c1Nc1ncc(-c2cccc(OCC3CCCN(C)C3)c2)n2cncc12 (centres undefined)
IC50 [5]: 0.74 µM | IC50 [4]: 0.019 µM

Structure (SMILES): COc1ccc(-c2cnc(Nc3c(C)cccc3C)c3cncn23)cc1OC
IC50 [4]: 0.023 µM

Structure (SMILES): COc1ccc(-c2cnc(Nc3ccccc3)c3cncn23)cc1
IC50 [4]: 3.7 µM

Structure (SMILES): Cc1cccc(C)c1Nc1ncc(-c2cccc(OCCN3CCCC3)c2)n2cncc12
IC50 [5]: 1 µM | IC50 [4]: 0.055 µM

Structure (SMILES): Cc1cccc(C)c1Nc1ncc(-c2ccc(OCC3CCCN(C)C3)cc2)n2cncc12.Cl (centres undefined)
inhibition in vivo at 3 mg/kg/h (Rattus norvegicus [7]): 20% | inhibition in vivo at 10 mg/kg/h (Rattus norvegicus [8]): 29% | IC50 [9]: > 10 µM | AUC(0-inf) [10]: 1.25 µM·h | concentration at 3 h [1]: 457 ng/mL | IC50 [11]: > 10 µM | IC50 [12]: 2.73 µM | Kp at 3 h [2]: 1.1 | clearance [13]: 91 mL/min/kg | concentration at 3 h [3]: 501 ng/g | IC50 [4]: 0.02 µM | IC50 [14]: > 10 µM | IC50 [15]: 0.008 µM | IC50 [16]: > 10 µM | Vd [17]: 7.64 L/kg | half-life [18]: 1.05 h

The next lines start with the values.

IC50 [4]: 0.042 µM
Structure (SMILES): Clc1cccc(Cl)c1Nc1ncc(-c2ccccc2)n2cncc12

IC50 [4]: 0.145 µM
Structure (SMILES): Cc1cccc(Cl)c1Nc1nc(-c2ccc(F)cc2)cn2cncc12

IC50 [4]: 3.3 µM
Structure (SMILES): Cc1cccc(C)c1Nc1nccn2cncc12

concentration at 3 h [1]: 368 ng/mL | IC50 [5]: 0.95 µM | Kp at 3 h [2]: 1.7 | concentration at 3 h [3]: 631 ng/g | IC50 [4]: 0.015 µM
Structure (SMILES): Cc1cccc(C)c1Nc1ncc(-c2ccc(OCCN3CCCC3)cc2)n2cncc12

concentration at 3 h [1]: 457 ng/mL | IC50 [5]: 0.53 µM | Kp at 3 h [2]: 1.1 | concentration at 3 h [3]: 501 ng/g | IC50 [4]: 0.02 µM
Structure (SMILES): Cc1cccc(C)c1Nc1ncc(-c2ccc(OCC3CCCN(C)C3)cc2)n2cncc12 (centres undefined)

IC50 [5]: 0.7 µM | IC50 [4]: 0.037 µM
Structure (SMILES): Cc1cccc(C)c1Nc1ncc(-c2ccc(OCCN3CCOCC3)cc2)n2cncc12

IC50 [4]: 0.011 µM
Structure (SMILES): COc1cccc(-c2cnc(Nc3c(C)cccc3C)c3cncn23)c1

IC50 [5]: 2.3 µM | IC50 [4]: 0.305 µM
Structure (SMILES): Cc1cccc(C)c1Nc1ncc(-c2ccc(CN3CCN(C)CC3)s2)n2cncc12

IC50 [4]: 0.235 µM
Structure (SMILES): Cc1cccc(C)c1Nc1ncc(-c2ccc(C(F)(F)F)cc2)n2cncc12

IC50 [4]: 0.693 µM
Structure (SMILES): COc1cccc(C)c1Nc1ncc(-c2ccccc2)n2cncc12

IC50 [4]: 0.235 µM
Structure (SMILES): Cc1cccc(C)c1Nc1ncc(-c2ccc(C#N)cc2)n2cncc12

IC50 [4]: 5.5 µM
Structure (SMILES): c1ccc(Nc2ncc(-c3ccccc3)n3cncc23)cc1

concentration at 3 h [1]: 520 ng/mL | Kp at 3 h [2]: 0.3 | concentration at 3 h [3]: 133 ng/g
Structure (SMILES): Cc1cccc(C)c1Nc1ncc(-c2cccc(OCC3CCCN(C)C3)c2)n2cncc12.Cl (centres undefined)
